# Experimental data from PMC12718081 (ACS Infectious Diseases, 2025).
# What was measured:
# Type in all cases: cell-based, Schistosoma mansoni
# Sm.TRPMPZQ = assay: Ca2+ reporter assay in antagonist mode (block of PZQ activation of Sm.TRPMPZQ); details: preincubation 1 nM-100 μM for 10 min, data not shown
# Description: (§1) The Ca^2+ reporter assay was performed using a Fluorescence Imaging Plate Reader (FLIPR) system, as described in the Supporting Information.
# (§2) Adult worm ex-vivo high-content assay
# (§3) “Area” and “False Negative Rate” from the MeasureObjectSizeShape and MeasureObjectOverlap modules, respectively. These measurements were then modeled by a multilevel generalized linear statistical model. The effects of the experimental treatments on […]
# (§4) The half-maximal inhibitory
# (§5) Windows (GraphPad Software, Boston, MA, USA; www.graphpad.com). […]
# (§6) with DMSO as a negative control. […]
# (§7) reader. […] The fluorescence
# (§8) Untransfected HEK293 cells were used as a control.
# (§9) 10% fetal bovine serum (FBS). […]
# (§10) atmosphere containing 5% CO₂. Following incubation, the growth medium was removed and […]
# buffer containing 2.5 mM probenecid in HBSS (with Ca²⁺ and Mg²⁺), 20 mM HEPES, 0.3% BSA (Sigma, A7030), and 0.03% L-ascorbic acid (Sigma). Cells were incubated for 40 minutes at 37 °C and subsequently for 20 minutes at room temperature. A total of seven PZQ derivatives were tested, using racemic PZQ included as a positive control on each assay plate. Drug dilutions were prepared in assay buffer without dye and probenecid and dispensed into separate flat-bottom 384-well plates. Calcium flux measurements were performed at room temperature using a […]
# (§11) instrument (Molecular Devices). Baseline fluorescence was recorded for 20 seconds, followed by the addition of 5 µL of each drug solution, after which fluorescence was measured continuously for 250 seconds. […]
# schistosomula after 72h of incubation using the Roboworm high-content screening assay. Auranofin (AUR) was included at 10 µM as positive control. DMSO was included as a negative control. Compounds were considered hits if both their motility and phenotype scores were lower than -0.35 and -0.15, respectively (region delimited by the […]
# (1 picture or pasted object on this page, not shown here)
# S. mansoni schistosomula = assay: Roboworm high-content screening assay on schistosomula (motility and phenotype scores); details: 72 h
# Description: All PZQ derivatives were synthesized in the racemic form and evaluated as such. The compounds were initially screened at 10 μM against S. mansoni schistosomula using the Roboworm high-content screening assay , and were declared hits or nonhits based on their effect on parasites’ motility and phenotype scores after 72 h of incubation. As none of the compounds were considered hits at this concentration, we performed a titration from 6.25 to 50 μM (Figure S27).
# DMSO was included as a negative control. Compounds were considered hits if both their motility and phenotype scores were lower than −0.35 and −0.15, respectively (region delimited by the dashed lines). In red, PZQ analogues selected for further analysis.
# For the collection of schistosomula, B. glabrata snails infected with S. mansoni were shed for 2 h under light at 26 °C. Cercariae were collected, mechanically transformed into schistosomula as previously described.
# DMSO (0.625%, v/v) was included as a negative control. Z′ values for the assay were calculated to be 0.542 for phenotype and 0.361 for motility. […]
# Auranofin (AUR) was included at 10 µM as positive control. DMSO was included as a negative control. Compounds were considered hits if both their motility and phenotype scores were lower than -0.35 and -0.15, respectively (region delimited by the […]
# Sm.TRPMPZQ Y1392A mutant = assay: Ca2+ reporter activation assay, Sm.TRPMPZQ point mutant Y1392A; details: 100 μM
# Description: This trend likely indicates a similar binding mode.
# The colored cells represent the range of EC50 values for each compound based on their ability to activate the channel.
# as §1, §2, §3, §4, §5, §6, §7, §8, §9, §10
# buffer containing 2.5 mM probenecid in HBSS (with Ca²⁺ and Mg²⁺), 20 mM HEPES, 0.3% BSA (Sigma, A7030), and 0.03% L-ascorbic acid (Sigma). Cells were incubated for 40 minutes at 37 °C and subsequently for 20 minutes at room temperature. […]
# as §11
compound,measurement,setting,value
O=C(C1CCCCC1)N1CC(=O)N2CCc3ccc(-n4cc(C5=CCCCC5)nn4)cc3C2C1 (stereo not drawn) [Compound 5b],block of PZQ activation of Sm.TRPMPZQ (antagonist mode),Sm.TRPMPZQ,failed to impact subsequent responses to PZQ
CCCc1cn(-c2ccc3c(c2)C2CN(C(=O)C4CCCCC4)CC(=O)N2CC3)nn1 (stereo not drawn) [Compound 5e],effect on parasites motility,S. mansoni schistosomula; 50 μM,significant effect
same,hit classification (motility and phenotype scores),"S. mansoni schistosomula; 50 μM, hit if motility < -0.35 and phenotype < -0.15",did not change their phenotype score enough to be considered a hit
[N-]=[N+]=Nc1ccc2c(c1)C1CN(C(=O)C3CCCCC3)CC(=O)N1CC2 (stereo not drawn) [Compound 4],hit classification (motility and phenotype scores),S. mansoni schistosomula; 12.5 μM,borderline
same,hit classification (motility and phenotype scores),S. mansoni schistosomula; 25 μM,declared a hit
same,activity at Sm.TRPMPZQ carrying the Y1392A mutation,Sm.TRPMPZQ Y1392A mutant,retained residual activity
